Publication PMC6407579, “New flavonoid – N,N-dibenzyl(N-methyl)amine hybrids: Multi-target-directed agents for Alzheimer´s disease endowed with neurogenic properties” (Journal of Enzyme Inhibition and Medicinal Chemistry, 2019)
“And” between values parts separate entries of the source, which are not always exact repeats. Equal values may be shown once. Read-outs that look alike come from different tables or passages of the source.

Legend:
[1] = Oxygen radical absorbance capacity assay (ORAC); settings: trolox taken as 1.0
[2] = target: T1, human recombinant AChE (hAChE) (Homo sapiens, UniProt P22303); assay: biochemical
T1 construct: purchased Sigma Chemical Co
Experimental: The Ellman method was followed, using human recombinant AChE and BuChE from human serum. The assay solution consisted of 0.1 M phosphate buffer pH 8.0, 400 μM 5,5´-dithiobis(2-nitrobenzoic acid) (DTNB, Ellman’s reagent), 0.05 U/mL hAChE (Sigma Chemical Co.) or 0.024 U/mL hBuChE (Sigma Chemical Co.), and 800 μM acetylthiocholine iodide, or 500 μM butyrylthiocholine as the substrate of the enzymatic reaction, respectively. The compounds tested were added to the assay solution and preincubated with the enzyme for 5 min at 30 °C. After that period, the substrate was added.

recombinant hMAO-A = target: T2, recombinant hMAO-A (Homo sapiens, UniProt P21397); assay: biochemical; type: biochemical; settings: mean ± SEM (n = 3); 100 µM highest concentration tested
T2 sequence (P21397 1-527): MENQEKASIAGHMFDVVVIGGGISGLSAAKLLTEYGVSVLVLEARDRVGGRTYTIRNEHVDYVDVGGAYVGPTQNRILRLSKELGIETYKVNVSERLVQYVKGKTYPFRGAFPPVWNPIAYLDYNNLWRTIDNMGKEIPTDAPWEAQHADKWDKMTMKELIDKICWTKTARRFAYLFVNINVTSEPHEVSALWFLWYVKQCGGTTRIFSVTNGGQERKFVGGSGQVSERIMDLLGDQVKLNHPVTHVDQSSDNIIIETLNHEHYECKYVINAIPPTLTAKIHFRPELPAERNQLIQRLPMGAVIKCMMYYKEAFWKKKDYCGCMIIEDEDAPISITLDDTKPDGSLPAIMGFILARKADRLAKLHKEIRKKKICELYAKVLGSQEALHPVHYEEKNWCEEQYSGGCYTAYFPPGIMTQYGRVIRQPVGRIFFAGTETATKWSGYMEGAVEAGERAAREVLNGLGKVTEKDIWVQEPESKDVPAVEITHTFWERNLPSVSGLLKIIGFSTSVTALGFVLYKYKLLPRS

recombinant hMAO-B = target: T3, recombinant hMAO-B (Homo sapiens, UniProt P27338); assay: biochemical; type: biochemical; settings: for IC50: mean ± SEM (n = 3), 100 µM highest concentration tested
T3 sequence (P27338 1-520): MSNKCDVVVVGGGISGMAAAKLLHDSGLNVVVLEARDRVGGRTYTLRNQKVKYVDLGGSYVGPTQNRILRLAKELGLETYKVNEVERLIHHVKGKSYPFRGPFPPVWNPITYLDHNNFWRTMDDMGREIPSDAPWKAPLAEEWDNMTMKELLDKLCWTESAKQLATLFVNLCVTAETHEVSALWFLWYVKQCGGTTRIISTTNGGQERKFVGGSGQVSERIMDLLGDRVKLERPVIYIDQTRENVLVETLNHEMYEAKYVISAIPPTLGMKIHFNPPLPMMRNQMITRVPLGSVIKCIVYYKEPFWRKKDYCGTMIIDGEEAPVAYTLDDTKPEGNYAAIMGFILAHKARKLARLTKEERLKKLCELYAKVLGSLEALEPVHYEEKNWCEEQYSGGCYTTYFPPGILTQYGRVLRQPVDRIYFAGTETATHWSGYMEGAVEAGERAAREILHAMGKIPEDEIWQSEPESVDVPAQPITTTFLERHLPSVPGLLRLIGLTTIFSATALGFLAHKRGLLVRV

[3] = In vitro blood-brain barrier permeation assay (PAMPA-BBB); type: in vitro ADME; settings: pig, pH 7.4, porcine brain lipid, PBS:ethanol (70:30), 25 °C, read-out: PAMPA-BBB permeability in the CNS (Pe)
Experimental: Prediction of the brain penetration was evaluated using a parallel artificial membrane permeation assay (PAMPA-BBB), in a similar manner as previously described[36]^,[46]^,[51–53]. Pipetting was performed with a semi-automatic pipettor (CyBi®-SELMA) and UV reading with a microplate spectrophotometer (Multiskan Spectrum, Thermo Electron Co.). Commercial drugs, phosphate buffered saline solution at pH 7.4 (PBS), and dodecane were purchased from Sigma, Aldrich, Acros, and Fluka. Millex filter units (PVDF membrane, diameter 25 mm, pore size 0.45 μm) were acquired from Millipore. The porcine brain lipid (PBL) was obtained from Avanti Polar Lipids. The donor microplate was a 96-well filter plate (PVDF membrane, pore size 0.45 μm) and the acceptor microplate was an indented 96-well plate, both from Millipore. The acceptor 96-well microplate was filled with 200 μL of PBS: ethanol (70:30) and the filter surface of the donor microplate was impregnated with 5 μL of porcine brain lipid (PBL) in dodecane (20 mg mL^−1). Compounds were dissolved in PBS: ethanol (70:30) at 100 μg mL^−1, filtered through a Millex filter, and then added to the donor wells (200 μL). The donor filter plate was carefully put on the acceptor plate to form a sandwich, which was left undisturbed for 120 min at 25 °C. After incubation, the donor plate is carefully removed and the concentration of compounds in the acceptor wells was determined by UV-Vis spectroscopy. Every sample is analysed at five wavelengths, in four wells and at least in three independent runs, and the results are given as the mean ± standard deviation. In each experiment, 11 quality control standards of known BBB permeability were included to validate and normalise the analysis set.
To check if new compounds could be able to reach their CNS-targets, we used the in vitro parallel artificial membrane permeability assay for the blood-brain barrier (PAMPA-BBB) described by Di et al.[87], and partially modified by us for testing molecules with limited water-solubility[36]^,[46]^,[51–53]. The passive CNS-permeation of new compounds 1–13 through a lipid extract of porcine brain was measured at room temperature. In each experiment, 11 commercial drugs of known brain permeability were also tested and their permeability values normalised to the reported PAMPA-BBB data. […].

hLOX-5 = target: T4, hLOX-5 (Homo sapiens, UniProt P09917); assay: Inhibition of human lipoxygenase-5 (fluorescence-based, Pufahl); type: biochemical; settings: three independent experiments
T4 sequence (P09917 1-674): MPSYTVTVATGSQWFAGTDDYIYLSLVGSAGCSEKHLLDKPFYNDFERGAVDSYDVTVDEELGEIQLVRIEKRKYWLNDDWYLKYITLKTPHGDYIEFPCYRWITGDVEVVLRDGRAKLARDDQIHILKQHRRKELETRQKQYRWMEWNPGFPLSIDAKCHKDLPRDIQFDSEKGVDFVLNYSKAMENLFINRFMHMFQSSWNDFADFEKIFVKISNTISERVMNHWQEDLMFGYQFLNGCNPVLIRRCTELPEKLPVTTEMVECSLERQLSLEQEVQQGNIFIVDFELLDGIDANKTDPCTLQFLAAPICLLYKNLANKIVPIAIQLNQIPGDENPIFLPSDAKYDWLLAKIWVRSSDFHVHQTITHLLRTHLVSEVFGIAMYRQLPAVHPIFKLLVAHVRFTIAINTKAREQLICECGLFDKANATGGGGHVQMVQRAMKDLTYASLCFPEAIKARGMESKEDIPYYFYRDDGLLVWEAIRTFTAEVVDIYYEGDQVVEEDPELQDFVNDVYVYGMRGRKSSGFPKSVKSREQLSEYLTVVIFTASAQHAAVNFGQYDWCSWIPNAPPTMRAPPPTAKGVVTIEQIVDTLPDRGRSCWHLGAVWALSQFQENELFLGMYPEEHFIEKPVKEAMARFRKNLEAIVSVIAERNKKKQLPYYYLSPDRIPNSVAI
Experimental: The fluorescence-based enzyme method developed by Pufahl et al. was followed, in 96-well microtiter plates. The assay solution consists of Tris buffer (50 mM, pH 7.5), ethylenediaminetetraacetic acid (EDTA, 2 mM), CaCl2 (2 mM), arachidonic acid (AA, 3 μM), ATP (10 μM), 2',7'-dichlorodihydrofluorescein diacetate (H2DCFDA, 10 μM), hLOX-5 (100 mU/well), bovine glutathione peroxidase (GPx, 25 mU/well) and reduced glutathione (GSH, 1 mM). Compounds to be tested were added to the test solution prior to AA and ATP, and pre-incubated for a period of 10 min at room temperature. Then, the AA and ATP substrates were added; the enzymatic reaction allowed to progress for 20 min and ended by the addition of 40 μL of acetonitrile.
A selection of new hybrids covering different structural motifs was assayed as inhibitors of hLOX-5, followed the method described by Pufahl et al.[55].

[4] = mean ± SEM (n = 3), read-out: hAChE IC50

T1 sequence (P22303 32-614): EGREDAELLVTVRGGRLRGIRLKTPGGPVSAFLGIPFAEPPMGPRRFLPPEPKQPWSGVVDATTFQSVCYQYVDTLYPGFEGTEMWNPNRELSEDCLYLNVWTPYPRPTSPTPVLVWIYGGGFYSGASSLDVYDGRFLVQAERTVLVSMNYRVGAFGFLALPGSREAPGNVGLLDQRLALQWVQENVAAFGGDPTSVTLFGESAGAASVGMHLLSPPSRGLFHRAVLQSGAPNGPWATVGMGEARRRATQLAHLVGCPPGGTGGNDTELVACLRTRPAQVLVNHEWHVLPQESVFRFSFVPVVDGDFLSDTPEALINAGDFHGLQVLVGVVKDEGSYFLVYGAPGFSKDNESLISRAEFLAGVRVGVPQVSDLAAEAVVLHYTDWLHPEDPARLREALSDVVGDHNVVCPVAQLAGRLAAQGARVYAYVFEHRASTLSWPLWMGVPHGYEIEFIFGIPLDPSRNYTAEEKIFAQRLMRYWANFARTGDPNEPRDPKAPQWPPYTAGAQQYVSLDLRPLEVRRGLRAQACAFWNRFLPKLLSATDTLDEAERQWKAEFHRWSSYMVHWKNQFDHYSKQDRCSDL

Row | Structure (SMILES) | ORAC, trolox equivalents [1] | IC50 ([2]; hAChE IC50, mean ± SEM (n = 3)) | IC50 (recombinant hMAO-A) | IC50 (recombinant hMAO-B) | Papp at 120 min, 100 μg mL^−1 [3] | IC50 [2, 4] | more active in hMAO-B than in hMAO-A (recombinant hMAO-B) | hLOX-5 IC50 (hLOX-5; mean ± SEM) | IC50 (hLOX-5; mean ± SEM, read-out: hLOX-5 IC50) | IC50 (hLOX-5; hLOX-5 IC50, mean ± SEM)
1 | Cc1c(C)c2c(c(C)c1O)CCC(C)(C(=O)O)O2 (racemic) [Trolox, (±)-6-hydroxy-2,5,7,8-tetramethylchromane-2-carboxylic acid, reference compound] | 1.0 mmol of trolox/mmol of tested compound |  |  |  |  |  |  |  |  | 
2 | COc1cc(OC)c2c(=O)cc(C(=O)Nc3ccc(CN(C)Cc4ccccc4)cc3)oc2c1 [Compound 3, N-(4-((Benzyl(methyl)amino)methyl)phenyl)-5,7-dimethoxy-4-oxo-4H-chromene-2-carboxamide] |  | 3.2 ± 0.4 µM | > 100 µM | > 100 µM | 19.4 ± 1.7 ×10⁻⁶ cm/s |  |  |  |  | 
3 | COc1cccc2[nH]c(C(=O)Nc3ccc(CN(C)Cc4ccccc4)cc3)cc(=O)c12 [Compound 7, N-(4-((Benzyl(methyl)amino)methyl)phenyl)-5-methoxy-4-oxo-1,4-dihydroquinoline-2-carboxamide] |  |  | > 100 µM | 15.2 ± 1 µM | 23 ± 2.1 ×10⁻⁶ cm/s | 4 ± 0.4 µM | 6.6 fold |  |  | 
4 | COc1ccc2[nH]c(C(=O)Nc3ccc(CN(C)Cc4ccccc4)cc3)cc(=O)c2c1 [Compound 8, N-(4-((Benzyl(methyl)amino)methyl)phenyl)-6-methoxy-4-oxo-1,4-dihydroquinoline-2-carboxamide] |  |  | > 100 µM | > 100 µM | 24.8 ± 2 ×10⁻⁶ cm/s | 2.3 ± 0.1 µM |  | inactive | > 100 µM | 
5 | CN(Cc1ccccc1)Cc1ccc(NC(=O)c2cc(=O)c3cc(O)ccc3[nH]2)cc1 [Compound 9, N-(4-((Benzyl(methyl)amino)methyl)phenyl)-6-hydroxy-4-oxo-1,4-dihydroquinoline-2-carboxamide] | 1.2 mmol of trolox/mmol of tested compound and 1.2 ± 0.1 mmol of trolox/mmol of tested compound | 3.1 ± 0.3 µM | > 100 µM | > 100 µM | 8.4 ± 0.7 ×10⁻⁶ cm/s |  |  |  |  | 
6 | COc1ccc2c(=O)cc(C(=O)Nc3ccc(CN(C)Cc4ccccc4)cc3)[nH]c2c1 [Compound 10, N-(4-((Benzyl(methyl)amino)methyl)phenyl)-7-methoxy-4-oxo-1,4-dihydroquinoline-2-carboxamide] |  | 2.3 ± 0.2 µM | > 100 µM | > 100 µM | 21.7 ± 1.9 ×10⁻⁶ cm/s |  |  |  |  | 82.8 ± 4.1 µM
7 | COc1cc2[nH]c(C(=O)Nc3ccc(CN(C)Cc4ccccc4)cc3)cc(=O)c2cc1OC [Compound 11, N-(4-((benzyl(methyl)amino)methyl)phenyl)-6,7-dimethoxy-4-oxo-1,4-dihydroquinoline-2-carboxamide] |  | 4.5 ± 0.3 µM | > 100 µM | > 100 µM | 19.1 ± 1.5 ×10⁻⁶ cm/s |  |  |  |  | 
8 | CN(Cc1ccccc1)Cc1ccc(NC(=O)c2cc(=O)c3cc(O)c(O)cc3[nH]2)cc1 [Compound 12, N-(4-((benzyl(methyl)amino)methyl)phenyl)-6,7-dihydroxy-4-oxo-1,4-dihydroquinoline-2-carboxamide] | 0.5 mmol of trolox/mmol of tested compound and 0.5 ± 0.1 mmol of trolox/mmol of tested compound | > 10 µM | > 100 µM | > 100 µM | 8.8 ± 0.7 ×10⁻⁶ cm/s |  |  |  |  | 
9 | COc1cc2[nH]c(C(=O)Nc3cccc(CN(C)Cc4ccccc4)c3)cc(=O)c2cc1OC [Compound 13, N-(3-((Benzyl(methyl)amino)methyl)phenyl)-6,7-dimethoxy-4-oxo-1,4-dihydroquinoline-2-carboxamide] |  | > 10 µM | > 100 µM | > 100 µM | 15.1 ± 1.2 ×10⁻⁶ cm/s |  |  |  |  | 36.6 ± 3.1 µM
